Consider 1 compound from US20100137344A1, “INDUCTION OF ANALGESIA IN NEUROPATHIC PAIN” (University Court of the University of Edinburgh, priority 2006, published 2010).

The subject of test [1] is model of cancer-induced bone pain. Briefly: Cancer-induced bone pain model (von Frey, rotarod paw lifts). The format is in vivo. To be noted: topical icilin. From the text: The model of cancer-induced bone pain was set up according to Medhurst et al., 2002 Pain 96: 129-40.
In general terms: In the rotarod test animals must keep their balance on a rotating rod.

Test [2] has as its system SNL model of neuropathic pain. The test is described as follows: SNL spinal nerve ligation model, Hargreaves' test, topical icilin. The class given is in vivo. The following applies: icilin 200 μM topical. On the procedure: The SNL model of neuropathic pain was set up according to Kim and Chung 1992 (Pain 50: 355-363). The Hargreaves' test for thermal hyperalgesia was carried out as described above and icilin (200 μM) was applied topically to the ipsilateral (⋄) and contralateral (▪) paw. Values are shown as means±SEM. † Indicates statistically significant reversal of sensitisation ipsilateral to nerve injury (see FIG. 1). No significant drug effects were seen on reflex withdrawal responses of the contralateral limb.

The subject of test [3] is rats with lysolecithin-induced demyelination of sciatic nerve. Briefly: Intrathecal icilin in lysolecithin demyelination-induced pain model (PWL, PWT). The format is in vivo, rat. The following applies: icilin 10 nmol, i.t. The method, then:
Pain models were generated under halothane anaesthesia (Zeneca, Cheshire, UK). For the chronic constriction injury (CCI) model of neuropathic pain, four ligatures were tied loosely to constrict the sciatic nerve at mid-thigh level (as described previously^[39]). An inflammatory pain model was generated by injecting 100 μl of Complete Freund's Adjuvant (CFA, Sigma-Aldrich Ltd) into the ventral surface of the right hindpaw^[39]. A model of peripheral demyelination-induced pain was produced by focal application of lysolecithin to the sciatic nerve^[40]. Peak behavioural sensitisation was observed post-surgically between days 10-16 for CCI, 1-3 for CFA, and 7-14 for lysolecithin, when pharmacological and electrophysiological experiments and tissue removal were conducted.
Thermal sensitivity was assessed by measuring paw withdrawal latency (PWL, s) in response to a noxious thermal stimulus (Hargreaves' thermal stimulator, Linton Instrumentation, Diss, UK) directed to the hindpaw mid-plantar glabrous surface. Mechanical sensitivity was recorded as the paw withdrawal threshold (PWT, mN/mm^2) to calibrated von Frey filaments (Stoelting, Ill., US), as previously described^[39]. Sensitivity to noxious cold was assessed by placing animals in a waterbath with an aluminium floor containing 1 cm deep 4° C. water and counting the time the paw was held suspended over a 20 s period.
The following drugs were applied intrathecally in a 50 μl volume of saline-based vehicle at 37° C.: icilin (2.5-200 μM in saline with 0.2% dimethylformamide, DMF), LY 341495 (100 μM in saline), UBP 1112 (200 μM in saline), 2R,4R-APDC ((2R, 4R)-4-aminopyrrolidine-2,4-dicarboxylate), 300 μM in saline), ACPT-III ((1R,3R,4S)-1-aminocyclopentane-1,3,4-tricarboxylic acid), 3 mM in saline), AP-4, ((L-(1)-2-amino-4-phosphonobutyric acid), 3 mM in saline), naloxone (0.5 mM in saline), NMDA (75 μM in saline) and ACPC (1-aminocyclopropanecarboxylic acid, 15 μM in saline) (Tocris Cookson, Bristol, UK), (−)-menthol (1R,2S,5R-(−)-menthol, 4 mM in saline), cinnamaldehyde (1.5 mM in saline) and Ruthenium Red (5 μM in saline) (Sigma-Aldrich Co. Ltd, UK) and allicin (0.5 mM in saline with 0.5% DMF) and diallyl disulphide (DADS, 1 mM in saline with 0.5% DMF) (LKT Laboratories Inc., St Paul, Minn., USA). […] Behavioural reflex testing commenced 15 min following injection to allow recovery from anaesthesia^[40,41,42] and continued every 5 min thereafter until readings returned to baseline levels (n=6 in each case). […]
The TRPM8 channel activators, icilin and (−)-menthol were tested in CCI and naïve animals. The effects of icilin were additionally assessed in animals with CFA-induced inflammation or with lysolecithin-induced demyelination. […]

Test [4] has as its system CCI model of neuropathic pain. Briefly: Cold allodynia in CCI model, Peltier controlled footplate. The format is in vivo, rat. The following applies: icilin 200 μM topical. On the procedure:
In the CCI model of neuropathic pain, cold allodynia was assessed by scoring the number of paw flick-associated paw withdrawals from a Peltier controlled footplate that was reduced in temperature from control (30° C.) to mild cooling (20° C.). Icilin (200 μM) was applied topically (as in FIG. 1). Values are shown as means±SEM, ipsilateral (⋄) to nerve injury. † Indicates statistically significant reversal of cool allodynia.

As for `O=C1NC(c2cccc([N+](=O)[O-])c2)=CCN1c1ccccc1O` [icilin, 1-(2′-hydroxyphenyl)-4-(3″-nitrophenyl)-1,2,3,6-tetrahydropyrimidin-2-one], the “analgesia in cancer-induced bone pain (mechanical allodynia, movement-evoked pain)” value in test [1] was “causes analgesia”. Also, in test [2], the “analgesia, thermal hyperalgesia (Hargreaves' test)” value is “causes analgesia”. In test [3], the “Mean % reversal of mechanical sensitisation (after 15-30 mins)” value came out at 63.3 ± 6.4%, the “Mean % reversal of thermal sensitisation (after 15-30 mins)” value turned out to be 69.2 ± 5.1%, the “PWL (s) difference from control (+ icilin)” value is listed as 2.4 ± 1.2 s and the “PWT (mN/mm^2) difference from control (+ icilin)” value was determined as 1102.5 ± 422.5 mN/mm^2. For the same compound, the “analgesia against cold allodynia (paw withdrawals, footplate 30° C. to 20° C.)” value in test [4] is given as “provides analgesia against the cold allodynia”.
